# Reference: patent US20220388979A1, “QUINOLINE DERIVATIVES AS PROTEIN KINASE INHIBITORS” (B.C.I. PHARMA, priority 2019, published 2022)
# Experiments:
# Settings in all cases: at 50 nM, in duplicate
# CSF1R = CSF1R (Homo sapiens, UniProt P07333); test: Z'-Lyte biochemical kinase assay (SelectScreen), CSF1R
# Method: (§1) A biochemical assay was performed in order to measure the protein kinase inhibition. The kinase binding assays were performed against different kinases using the SelectScreen Biochemical Kinase Profiling Service® platform (Thermo Fisher Scientific). For all kinases, the Z′-Lyte® biochemical kinase assay technology was used. Inhibitions were measured at 50 nM in duplicate for each compound and are reported in percentage.
# FLT3 = biological target: T1, FLT3 (Homo sapiens, UniProt P36888); test: Z'-Lyte biochemical kinase assay (SelectScreen), FLT3
# T1 sequence (P36888 27-993): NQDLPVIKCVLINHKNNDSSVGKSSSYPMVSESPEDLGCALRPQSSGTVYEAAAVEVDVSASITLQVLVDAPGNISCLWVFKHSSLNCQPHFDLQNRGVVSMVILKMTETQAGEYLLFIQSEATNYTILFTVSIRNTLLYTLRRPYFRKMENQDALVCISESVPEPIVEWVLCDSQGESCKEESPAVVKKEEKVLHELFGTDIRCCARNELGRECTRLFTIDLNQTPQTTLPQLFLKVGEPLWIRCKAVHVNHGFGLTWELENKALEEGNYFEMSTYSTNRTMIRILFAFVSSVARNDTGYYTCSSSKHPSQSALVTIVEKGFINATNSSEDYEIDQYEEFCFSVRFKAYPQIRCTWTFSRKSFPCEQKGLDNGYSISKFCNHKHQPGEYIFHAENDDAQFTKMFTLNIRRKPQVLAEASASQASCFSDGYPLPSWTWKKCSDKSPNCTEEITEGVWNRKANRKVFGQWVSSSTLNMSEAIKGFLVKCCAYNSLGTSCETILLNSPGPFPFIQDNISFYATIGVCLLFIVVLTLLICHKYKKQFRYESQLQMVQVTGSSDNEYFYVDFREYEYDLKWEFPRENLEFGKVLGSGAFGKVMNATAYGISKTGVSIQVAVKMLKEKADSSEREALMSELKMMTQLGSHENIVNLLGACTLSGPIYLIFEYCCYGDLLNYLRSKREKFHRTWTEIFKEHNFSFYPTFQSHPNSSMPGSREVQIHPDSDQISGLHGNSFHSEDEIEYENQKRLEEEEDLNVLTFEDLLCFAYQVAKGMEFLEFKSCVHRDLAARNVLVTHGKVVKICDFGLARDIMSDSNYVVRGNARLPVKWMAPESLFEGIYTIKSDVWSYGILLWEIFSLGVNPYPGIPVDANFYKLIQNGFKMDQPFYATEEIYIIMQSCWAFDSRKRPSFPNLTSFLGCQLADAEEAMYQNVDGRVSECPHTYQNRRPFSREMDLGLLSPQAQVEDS
# Method: as §1
# PDGFRB = PDGFRB (Homo sapiens, UniProt P09619); test: Z'-Lyte biochemical kinase assay (SelectScreen), PDGFRB
# Method: as §1
# PDGFRA = PDGFRA (Homo sapiens, UniProt P16234); test: Z'-Lyte biochemical kinase assay (SelectScreen), PDGFRA
# Method: as §1
# Kit = Kit (Homo sapiens, UniProt P10721); test: Z'-Lyte biochemical kinase assay (SelectScreen), Kit
# Method: as §1
# Sequence of Kit (P10721 26-976): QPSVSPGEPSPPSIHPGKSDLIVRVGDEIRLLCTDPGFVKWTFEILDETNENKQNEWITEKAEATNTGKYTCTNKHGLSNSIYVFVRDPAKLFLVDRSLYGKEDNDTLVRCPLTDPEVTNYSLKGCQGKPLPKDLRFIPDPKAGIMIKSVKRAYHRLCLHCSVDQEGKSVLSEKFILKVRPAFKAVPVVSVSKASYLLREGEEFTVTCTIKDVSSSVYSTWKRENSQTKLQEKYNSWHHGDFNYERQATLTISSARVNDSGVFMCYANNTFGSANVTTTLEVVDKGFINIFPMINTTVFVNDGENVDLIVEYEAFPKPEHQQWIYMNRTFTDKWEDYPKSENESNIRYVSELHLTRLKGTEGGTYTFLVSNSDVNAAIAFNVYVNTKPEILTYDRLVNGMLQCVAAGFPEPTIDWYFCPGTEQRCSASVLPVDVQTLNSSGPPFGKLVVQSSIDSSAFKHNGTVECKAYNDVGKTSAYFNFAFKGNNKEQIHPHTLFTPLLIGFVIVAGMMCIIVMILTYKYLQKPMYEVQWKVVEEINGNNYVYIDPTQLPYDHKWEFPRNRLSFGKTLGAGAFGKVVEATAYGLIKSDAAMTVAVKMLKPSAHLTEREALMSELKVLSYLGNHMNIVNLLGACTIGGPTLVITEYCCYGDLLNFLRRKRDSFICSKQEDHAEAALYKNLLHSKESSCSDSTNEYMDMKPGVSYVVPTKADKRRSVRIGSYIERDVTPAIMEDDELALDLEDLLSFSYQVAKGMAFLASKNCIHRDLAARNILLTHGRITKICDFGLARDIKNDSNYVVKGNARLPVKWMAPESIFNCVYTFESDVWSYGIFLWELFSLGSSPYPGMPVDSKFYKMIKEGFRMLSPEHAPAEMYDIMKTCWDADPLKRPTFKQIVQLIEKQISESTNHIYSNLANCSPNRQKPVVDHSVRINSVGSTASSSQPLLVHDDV
# Sequence of CSF1R (P07333 20-972): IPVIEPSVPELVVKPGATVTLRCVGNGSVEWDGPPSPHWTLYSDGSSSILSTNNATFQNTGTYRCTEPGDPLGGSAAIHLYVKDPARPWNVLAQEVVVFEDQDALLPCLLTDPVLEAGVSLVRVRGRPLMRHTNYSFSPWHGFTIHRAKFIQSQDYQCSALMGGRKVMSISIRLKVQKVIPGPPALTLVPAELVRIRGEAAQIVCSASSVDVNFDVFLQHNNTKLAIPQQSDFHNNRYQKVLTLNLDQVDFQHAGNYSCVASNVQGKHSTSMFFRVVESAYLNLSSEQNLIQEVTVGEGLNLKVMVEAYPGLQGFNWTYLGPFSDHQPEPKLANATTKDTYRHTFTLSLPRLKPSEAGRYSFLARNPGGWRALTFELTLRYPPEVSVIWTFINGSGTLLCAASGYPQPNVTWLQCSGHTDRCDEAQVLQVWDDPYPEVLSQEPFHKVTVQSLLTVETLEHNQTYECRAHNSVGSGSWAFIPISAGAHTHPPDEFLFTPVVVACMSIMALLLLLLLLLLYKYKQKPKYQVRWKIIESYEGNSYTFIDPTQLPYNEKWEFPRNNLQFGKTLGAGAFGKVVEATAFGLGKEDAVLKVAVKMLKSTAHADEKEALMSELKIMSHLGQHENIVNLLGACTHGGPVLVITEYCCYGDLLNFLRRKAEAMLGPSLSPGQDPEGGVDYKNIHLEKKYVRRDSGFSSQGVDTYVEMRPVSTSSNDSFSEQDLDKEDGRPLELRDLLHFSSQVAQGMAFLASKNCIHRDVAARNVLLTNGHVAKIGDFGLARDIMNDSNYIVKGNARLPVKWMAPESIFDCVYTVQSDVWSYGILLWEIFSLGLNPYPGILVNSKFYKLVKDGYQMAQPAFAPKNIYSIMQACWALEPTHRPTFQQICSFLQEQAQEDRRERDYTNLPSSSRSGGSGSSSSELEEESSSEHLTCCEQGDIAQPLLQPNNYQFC
# Sequence of PDGFRB (P09619 33-1106): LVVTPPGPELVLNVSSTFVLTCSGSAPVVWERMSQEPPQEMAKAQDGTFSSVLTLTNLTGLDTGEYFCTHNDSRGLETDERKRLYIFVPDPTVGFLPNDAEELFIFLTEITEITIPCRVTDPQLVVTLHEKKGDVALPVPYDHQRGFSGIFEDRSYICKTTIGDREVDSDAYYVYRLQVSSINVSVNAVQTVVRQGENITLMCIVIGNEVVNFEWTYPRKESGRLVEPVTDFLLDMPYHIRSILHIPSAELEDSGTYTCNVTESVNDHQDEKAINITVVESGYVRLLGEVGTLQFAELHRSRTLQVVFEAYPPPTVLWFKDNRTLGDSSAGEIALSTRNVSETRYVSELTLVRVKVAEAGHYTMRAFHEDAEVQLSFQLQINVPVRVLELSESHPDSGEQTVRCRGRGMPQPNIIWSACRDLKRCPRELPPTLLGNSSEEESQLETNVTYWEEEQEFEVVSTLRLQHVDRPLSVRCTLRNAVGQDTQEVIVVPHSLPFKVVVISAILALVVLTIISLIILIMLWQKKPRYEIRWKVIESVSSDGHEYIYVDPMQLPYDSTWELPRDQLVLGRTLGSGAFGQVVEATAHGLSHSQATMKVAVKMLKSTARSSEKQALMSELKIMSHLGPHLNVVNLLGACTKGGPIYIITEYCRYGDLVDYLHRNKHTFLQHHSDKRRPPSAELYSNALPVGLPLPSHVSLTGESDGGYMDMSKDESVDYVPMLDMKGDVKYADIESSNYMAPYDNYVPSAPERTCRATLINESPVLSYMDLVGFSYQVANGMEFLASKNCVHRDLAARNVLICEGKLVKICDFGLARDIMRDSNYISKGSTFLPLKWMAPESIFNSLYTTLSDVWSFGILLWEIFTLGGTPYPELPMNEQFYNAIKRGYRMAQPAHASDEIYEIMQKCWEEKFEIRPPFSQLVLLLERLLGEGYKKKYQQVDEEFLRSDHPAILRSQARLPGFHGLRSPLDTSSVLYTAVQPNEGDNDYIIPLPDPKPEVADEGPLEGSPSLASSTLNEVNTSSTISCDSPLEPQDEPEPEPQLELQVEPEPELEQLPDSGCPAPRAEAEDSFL
# Sequence of PDGFRA (P16234 24-1089): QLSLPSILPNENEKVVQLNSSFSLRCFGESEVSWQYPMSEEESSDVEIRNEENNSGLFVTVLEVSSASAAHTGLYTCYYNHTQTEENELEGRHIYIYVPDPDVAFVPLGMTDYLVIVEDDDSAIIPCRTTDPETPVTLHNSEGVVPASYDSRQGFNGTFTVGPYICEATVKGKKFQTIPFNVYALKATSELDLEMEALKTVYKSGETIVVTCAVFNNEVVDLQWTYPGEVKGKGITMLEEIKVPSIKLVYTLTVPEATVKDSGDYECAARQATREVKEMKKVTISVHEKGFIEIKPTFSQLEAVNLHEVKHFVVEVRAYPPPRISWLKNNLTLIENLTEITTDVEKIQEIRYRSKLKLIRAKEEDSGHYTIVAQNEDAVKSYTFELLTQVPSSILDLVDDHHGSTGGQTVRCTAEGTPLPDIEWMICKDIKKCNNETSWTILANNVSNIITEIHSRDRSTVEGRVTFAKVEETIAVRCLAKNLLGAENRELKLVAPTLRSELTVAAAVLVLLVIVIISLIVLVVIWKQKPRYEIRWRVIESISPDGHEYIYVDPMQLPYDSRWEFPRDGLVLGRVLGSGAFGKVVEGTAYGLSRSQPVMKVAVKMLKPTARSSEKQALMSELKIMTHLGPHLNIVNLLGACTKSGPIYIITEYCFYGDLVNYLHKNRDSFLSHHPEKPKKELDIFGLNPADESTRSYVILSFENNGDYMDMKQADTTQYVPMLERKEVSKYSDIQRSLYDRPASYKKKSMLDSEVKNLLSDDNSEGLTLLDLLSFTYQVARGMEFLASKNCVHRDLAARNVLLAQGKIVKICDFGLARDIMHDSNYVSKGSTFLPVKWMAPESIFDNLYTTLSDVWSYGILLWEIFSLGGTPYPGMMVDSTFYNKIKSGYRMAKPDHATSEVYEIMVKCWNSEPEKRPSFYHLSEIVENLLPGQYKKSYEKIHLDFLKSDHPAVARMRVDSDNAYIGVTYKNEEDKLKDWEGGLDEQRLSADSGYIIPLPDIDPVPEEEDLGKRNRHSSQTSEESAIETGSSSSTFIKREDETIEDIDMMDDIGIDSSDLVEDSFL
Compound,inhibition at 0.05 µM (CSF1R),inhibition at 0.05 µM (FLT3),inhibition at 0.05 µM (PDGFRB),inhibition at 0.05 µM (PDGFRA),inhibition at 0.05 µM (Kit)
O=C(NCc1ccc(F)cc1)c1cccc(Oc2ccnc3ccccc23)c1 [compound 16],81%,7%,24%,23%,15%
Cc1c(Oc2ccnc3cc(N(C)C)ccc23)cccc1C(=O)NCc1cccc(F)c1 [compound 152],77%,13%,25%,10%,3%
COc1ccc2c(Oc3cccc(C(=O)NCc4cccc(F)c4)c3C)ccnc2c1 [compound 33],78%,16%,14%,10%,4%
COc1cc2nccc(Oc3cccc(C(=O)NCc4cccc(F)c4)c3C)c2cc1OC [compound 107],85%,19%,25%,22%,11%
CNc1ccc2c(Oc3cccc(C(=O)NCc4ccncc4)c3C)ccnc2c1 [compound 148],75%,7%,12%,4%,0%
CN(C)c1ccc2c(Oc3cc(C(=O)NCc4ccncc4)ccc3F)ccnc2c1 [compound 143],77%,3%,32%,14%,8%
COc1cc2nccc(Oc3cccc(C(=O)NCc4ccccc4)c3)c2cc1OC [compound 84],91%,37%,54%,16%,34%
COc1cc2nccc(Oc3cc(C(=O)N[C@H](C)C4CCCCC4)ccc3F)c2cc1OC [compound 93],82%,3%,24%,23%,2%
Cc1c(Oc2ccnc3cc(Cl)ccc23)cccc1C(=O)NCc1ccncc1 [Compounds 108],88%,6%,13%,11%,10%
COc1ccccc1CNC(=O)c1ccc(F)c(Oc2ccnc3cc(OC)c(OC)cc23)c1 [compound 92],94%,50%,60%,24%,13%
COc1ccccc1CNC(=O)c1cccc(Oc2ccnc3cc(OC)c(OC)cc23)c1 [compound 26],102%,47%,50%,35%,32%
COc1cc2nccc(Oc3cccc(C(=O)N[C@H](C)c4ccccc4)c3)c2cc1OC [compound 24],97%,44%,34%,24%,29%
COc1cc2nccc(Oc3cc(F)cc(C(=O)N[C@H](C)C4CCCCC4)c3)c2cc1OC [compound 90],77%,26%,28%,28%,9%
O=C(NCc1cccc(F)c1)c1cccc(Oc2ccnc3ccccc23)c1 [compound 10],71%,18%,24%,17%,11%
COc1cc2nccc(Oc3cccc(C(=O)NCCc4ccccc4)c3)c2cc1OC [compound 25],95%,48%,39%,27%,32%
Cc1c(Oc2ccnc3ccccc23)cccc1C(=O)NCc1ccc(C#N)cc1 [compound 30],72%,10%,11%,8%,8%
